Reference: patent US8080644B2, “Oligonucleotide analogues” (Exiqon A/S, priority 1997, dated 2011)
V = bicyclic LNA-type nucleotide of structure V in the publication's (LNA marked in bold); d = 2'-deoxy (DNA)

What was measured:
[1] = system: Arabidopsis mRNA, AMV Reverse Transcriptase; assay: First strand cDNA synthesis priming; assay type: biochemical; conditions: 42° C., 2 hours, vs anchored poly dT control
Protocol: First Strand cDNA Synthesis Using Poly dT Primers Containing LNA T monomers. Reactions were set up in order to test the ability of poly dT primers containing LNA T residues to prime 1st strand cDNA synthesis. The following poly dT primers were tested (LNA monomers are in bold): […]
Reactions were set up as follows for each of the primers above: […]
This mix was then heated to 75° C. for 3 min and then allowed to cool at room temperature for at least 10 min.
The following was then added to each of the reactions:
The reactions were incubated at 42° C. for 2 hours. The reactions were then heated at 95° C. for 3 min before loading onto a 6% polyacrylamide 7M urea gel. The gel was fixed in 10% acetic acid/10% methanol before transferring to 3 MM paper and drying. The dried gel was exposed to Kodak Biomax autoradiography film overnight.

δ opioid receptor = assay: Warm water tail flick test, [D-Ala2]deltorphin-induced antinociception; assay type: in vivo, rats; conditions: 60 μg, i.th, saline-treated controls, 52° C. water
Protocol: Blockade by Antisense Locked Nucleic Acids (LNA) of [D-Ala2]Deltorphin-Induced Antinociception in the Warm Water Tail Flick Test in Conscious Rats. Male Sprague-Dawley rats (300 g) were implanted with an intrathecal (i.th). polyethylene catheter and allowed to recover for at least 5 days before start of injections (including controls). The antisense LNA compounds (12.5 and 2.5 μg per injection) were administered in a 5 μl volume twice-daily (08.00 and 17.00 h) for 3 days. No signs of non-specific effects or toxicity could be detected, as shown by observations of locomotor behavior and measurements of body weight. The day after the last injection the rats were injected with [D-Ala2]deltorphin (60 μg, i.th) and tested in the warm water (52° C.) tail flick test for δ opioid receptor-mediated antinociception. Data are presented in FIG. 14 as medians based on 6-8 animals per group (data converted to percent maximum possible response, % MPE). Statistical analyses were performed by means of Kruskal-Wallis 1-way ANOVA by ranks, followed by comparisons of treatments versus control.

[2] = system: MCF-7 human breast cancer cells
[3] = system: human MCF-7 breast cancer cells
Protocol: To increase the efficiency of LNA-uptake by human MCF-7 cells different transfection agents were tested with various concentrations of 5′FITC-labelled LNAs and DNA.
Three transfection agents were tested: FuGENE-6 (Boehringer Mannheim cat. no. 1 814 443), SuperFect (Quiagen cat. no. 301305) and Lipofectin (GibcoBRL cat. no. 18292-011). […] Three days before the experiments the cells were seeded at a cell density of approx. 0.8×10^4 cells per cm^2. Depending on the type of experiment the MCF-7 cells were seeded in standard T25 flasks (Nunc, LifeTechnologies cat. no. 163371A), 24 wells multidish (Nunc, LifeTechnologies cat. no. 143982A) or slide flasks (Nunc, LifeTechnologies cat. no. 170920A). The experiments were performed when cells were 30-40% confluent. Cellular uptake of LNA and DNA was studied at serum-free conditions, i.e. the normal serum containing DME/F12 medium was removed and replaced with DME/F12 without serum before the transfection-mixture was added to the cells. […] The result of the experiment was evaluated either directly on living cells in culture flasks or in 24 wells multidishes or on cells cultured in slide flasks and fixed in 4% ice-cold PFA. In all cases a Leica DMRB fluorescence microscope equipped with a high resolution CCD camera was used.

[4] = system: MCF-7 human breast cancer cells; remark: listed apart in the source
5′-(AAAAAAAAAAAAAA)-3′ = assay: Tm of duplex (spectrophotometric melting curves); assay type: binding; conditions: vs RNA 5′-(AAAAAAAAAAAAAA)-3′; 10 mM Na2HPO4 pH 7.0, 100 mM NaCl, 0.1 mM EDTA
Protocol: (§1) Thermostability of oligonucleotides containing monomers of formula V, X, Y and Z^T, Z^U, Z^G, Z^C, Z^A, Z^MeC. The thermostability of the LNA modified oligonucleotides were determined spectrophotometrically using a spectrophotometer equipped with a thermoregulated Peltier element. Hybridisation mixtures of 1 ml were prepared containing either of 3 different buffers (10 mM Na2HPO4, pH 7.0, 100 mM NaCl, 0.1 mM EDTA; 10 mM Na2HPO4 pH 7.0, 0.1 mM EDTA; 3M tetramethylammoniumchlorid (TMAC), 10 mM Na2HPO4, pH 7.0, 0.1 mM EDTA) and equimolar (1 μM or 1.5 μM) amounts of the different LNA modified oligonucleotides and their complementary or mismatched DNA or RNA oligonucleotides. Identical hybridisation mixtures using the unmodified oligonucleotides were prepared as references. The Tm's were obtained as the first derivative of the melting curves. FIG. 2 illustrates the monomeric LNAs used. The nomenclature V, X, Y and Z^T, Z^U, Z^G, Z^C, Z^A, Z^MeC refer to structures V, X, Y and Z of FIG. 2. In the tables, the nucleobases of the LNA monomers are indicated. Furthermore, for the thio and amino variants of the LNA structure Z of the last two tables, the nomenclature used is, e.g., Z^TS and Z^TNH, respectively.

5′-d(AAAAAAAAAAAAAA)-3′ = assay: Tm of duplex (spectrophotometric melting curves); assay type: binding; conditions: vs 5′-d(AAAAAAAAAAAAAA)-3′; 10 mM Na2HPO4 pH 7.0, 100 mM NaCl, 0.1 mM EDTA
Protocol: as §1

5′-d(AAAACAAAA)-3′ = assay: Tm of duplex (spectrophotometric melting curves); assay type: binding; conditions: vs 5′-d(AAAACAAAA)-3′ (mismatch); 10 mM Na2HPO4 pH 7.0, 100 mM NaCl, 0.1 mM EDTA
Protocol: as §1

5′-d(AAAAGAAAA)-3′ = assay: Tm of duplex (spectrophotometric melting curves); assay type: binding; conditions: vs 5′-d(AAAAGAAAA)-3′ (mismatch); 10 mM Na2HPO4 pH 7.0, 100 mM NaCl, 0.1 mM EDTA
Protocol: as §1

5′-d(AAAATAAAA)-3′ = assay: Tm of duplex (spectrophotometric melting curves); assay type: binding; conditions: vs 5′-d(AAAATAAAA)-3′ (mismatch); 10 mM Na2HPO4 pH 7.0, 100 mM NaCl, 0.1 mM EDTA
Protocol: as §1

5′-(AAAAAAGAAAAAAA)-3′ = assay: Tm of duplex (spectrophotometric melting curves); assay type: binding; conditions: vs RNA 5′-(AAAAAAGAAAAAAA)-3′ (mismatch); 10 mM Na2HPO4 pH 7.0, 100 mM NaCl, 0.1 mM EDTA
Protocol: as §1

RTZ 5: poly dT primer 5′-TTT TTT TTT T-3′ (SEQ ID NO: 69) containing LNA T monomers (TTTTTTTTTT; LNA T monomers)
priming of 1st strand cDNA synthesis [1]: yield was significantly lower than that produced with the control oligo primer

CC(C)[C@H](NC(=O)[C@H](CCC(=O)O)NC(=O)[C@H](Cc1ccccc1)NC(=O)[C@@H](C)NC(=O)[C@@H](N)Cc1ccc(O)cc1)C(=O)N[C@H](C(=O)NCC(=O)O)C(C)C [deltorphin, [D-Ala2]deltorphin]
antinociceptive effect (δ opioid receptor): robust antinociceptive effect

AL16: LNA oligo 5′-d(TGT GTG AAA TTG TTA T)-3′ (SEQ ID NO:57); also fluorescein/FITC-labelled (DNA TGTGTGAAATTGTTAT; LNA-containing, positions not given here, fluorescein label)
added radioactivity associated with cellular material [2]: approximately 0.8% | intracellular localisation [3]: predominantly was localised in the nuclei of the cells | number of green fluorescent cells after additional 3 days [4]: appeared unaltered

5′-d(TTTTTTTTTT)-3′ (SEQ ID NO: 95): almost fully modified LNA oligomer containing exclusively Z^T (52-56) (LNA Z^T monomers)
Tm (° C.) Na2HPO4/NaCl/EDTA (5′-(AAAAAAAAAAAAAA)-3′): 70 °C | Tm (° C.) Na2HPO4/NaCl/EDTA (5′-d(AAAAAAAAAAAAAA)-3′): 80 °C | Tm (° C.) Na2HPO4/NaCl/EDTA (5′-d(AAAACAAAA)-3′): 63 °C | Tm (° C.) Na2HPO4/NaCl/EDTA (5′-d(AAAAGAAAA)-3′): 55 °C | Tm (° C.) Na2HPO4/NaCl/EDTA (5′-d(AAAATAAAA)-3′): 65 °C

5′-d(TTTTTTTTTTTTTT)-3′ (SEQ ID NO: 113): fully modified poly-T oligonucleotide of structure V (sugars from the 5' end V13 d1, backbone not given here)
Tm (° C.) Na2HPO4/NaCl/EDTA (5′-(AAAAAAAAAAAAAA)-3′): 42 °C | Tm (° C.) Na2HPO4/NaCl/EDTA (5′-(AAAAAAGAAAAAAA)-3′): 37 °C | Tm (° C.) Na2HPO4/NaCl/EDTA (5′-d(AAAAAAAAAAAAAA)-3′): <10 °C
